According to EP4603105A1, “PHARMACEUTICAL COMPOSITION CONTAINING CYCLIC COMPOUND HAVING SELECTIVE KRAS INHIBITORY EFFECT AGAINST HRAS AND NRAS” (CHUGAI SEIYAKU KABUSHIKI KAISHA, priority 2022, dated 2024):
Where a SMILES comes first, the peptide text is derived from it. Bridges are numbered along the chain shown (N, C = ends). [ ]: non-standard residue; d: D form. The star is where a group is joined. hPhe(3,5-F2-4-CF3) = N[C@@H](CCc1cc(F)c(C(F)(F)F)c(F)c1)C(=O)O; hPhe(3-Cl-4-CF3) = N[C@@H](CCc1ccc(C(F)(F)F)c(Cl)c1)C(=O)O; NPrPhe(4-CF3) = CCCN[C@@H](Cc1ccc(C(F)(F)F)cc1)C(=O)O; NEtPhe(4-Me) = CCN[C@@H](Cc1ccc(C)cc1)C(=O)O; NMeGly(cPent) = CN[C@H](C(=O)O)C1CCCC1; Nva(3-Et) = CCC(CC)[C@H](N)C(=O)O; Hyp = O=C(O)[C@@H]1C[C@@H](O)CN1; NMeD = CN[C@@H](CC(=O)O)C(=O)O; NMeL = CN[C@@H](CC(C)C)C(=O)O; αMeS = C[C@](N)(CO)C(=O)O; Morpholide = C1CN(*)CCO1; Ac5c = NC1(C(=O)O)CCCC1; Aze = O=C(O)[C@@H]1CCN1; X4 = C1CCC(*)OC1; Sar = CNCC(=O)O; Allyl = C=CC*

Experiments:
[1] = test system: human lung cancer strain NCI-H441; assay type: cell-based
Procedure, shortened: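 Proliferation was scored by […] measured after the reagent was added to cultures kept at 37°C in 5% carbon dioxide.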

[2] = target: GDP-bound KRAS wild-type protein (Homo sapiens, UniProt P01116); test: Binding to KRAS by surface plasmon resonance (SPR), dissociation constant KD
Chain of GDP-bound KRAS wild-type protein (P01116 1-188 isoform P01116-2): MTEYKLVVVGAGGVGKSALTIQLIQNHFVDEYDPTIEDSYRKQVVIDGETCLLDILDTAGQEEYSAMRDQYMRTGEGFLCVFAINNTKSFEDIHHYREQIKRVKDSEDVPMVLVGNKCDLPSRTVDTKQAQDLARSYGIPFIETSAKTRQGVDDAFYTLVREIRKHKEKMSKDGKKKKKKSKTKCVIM
Procedure, shortened: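 GDP-loaded biotinylated Avi-tag RAS proteins (E. coli-expressed) captured on a Biotin CAPture chip at ~100–300 RU; single-cycle kinetics at 30°C, 100 µL/min, 75 s injections of rising compound concentrations. HBS pH 7.4 running buffer with 1 mM DTT, 10 mM MgCl2, 10 µM GDP, 4% DMSO. KD from 1:1 binding fit.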

[3] = target: HRAS wild-type protein (Homo sapiens, UniProt P01112); test: Binding to HRAS by surface plasmon resonance (SPR), KD and KD ratio to KRAS
Chain of HRAS wild-type protein (P01112 whole entry): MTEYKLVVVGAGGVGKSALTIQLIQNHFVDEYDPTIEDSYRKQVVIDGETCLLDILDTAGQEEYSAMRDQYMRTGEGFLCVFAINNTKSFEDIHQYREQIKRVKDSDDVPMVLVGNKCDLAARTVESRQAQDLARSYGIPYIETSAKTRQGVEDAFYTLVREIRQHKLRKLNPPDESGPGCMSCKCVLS
Procedure, shortened: (§1)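 SPR, 30°C: Avi-biotin RAS·GDP captured via Biotin CAPture (~100–300 RU); running buffer HBS pH 7.4, 1 mM DTT, 10 mM MgCl2, 0.01% Tween 20, 10 µM GDP, 4% DMSO. Single-cycle kinetics, 100 µL/min, 75 s injections; 1:1 model → KD.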

[4] = target: GDP-bound NRAS wild-type protein (Homo sapiens, UniProt P01111); test: Binding to NRAS by surface plasmon resonance (SPR), KD and KD ratio to KRAS
Chain of GDP-bound NRAS wild-type protein (P01111 whole entry): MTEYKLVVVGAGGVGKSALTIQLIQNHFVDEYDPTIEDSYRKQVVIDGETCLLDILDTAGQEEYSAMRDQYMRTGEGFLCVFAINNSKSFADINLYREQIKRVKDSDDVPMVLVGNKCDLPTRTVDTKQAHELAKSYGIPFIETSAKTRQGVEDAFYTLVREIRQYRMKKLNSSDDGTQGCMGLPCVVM
Procedure, shortened: as §1

[5] = ratio of KD for HRAS wild-type protein to KD for KRAS
[6] = ratio of KD for GDP-bound NRAS wild-type protein to KD for KRAS
[7] = Single Cycle Kinetics, 1:1 binding model
[8] = ratio of the KD value with respect to HRAS wild-type protein to the KD value with respect to KRAS
[9] = ratio of the KD value with respect to GDP-bound NRAS wild-type protein to the KD value with respect to KRAS

Structure (SMILES)	IC50 [1]	Kd ([2]; Single Cycle Kinetics)	HRAS /KRAS [3, 5]	NRAS /KRAS [4, 6]	Kd [2, 7]	HRAS /KRAS [3, 8]	NRAS /KRAS [4, 9]	Kd ([2]; 1:1 binding model)	HRAS /KRAS ([3]; ratio of KD value for HRAS wild-type protein to KD value for KRAS (SPR))	NRAS /KRAS ([4]; ratio of KD value for GDP-bound NRAS wild-type protein to KD value for KRAS (SPR))
CCCN1C(=O)CN(C)C(=O)[C@@H]2CCN2C(=O)[C@H](C(CC)CC)NC(=O)[C@H](CC(C)C)N(C)C(=O)C[C@@H](C(=O)N2CCOCC2)N(C)C(=O)[C@H](C2CCCC2)N(C)C(=O)C2(CCCC2)NC(=O)[C@@H]2CCCN2C(=O)[C@H](CCc2cc(F)c(C(F)(F)F)c(F)c2)NC(=O)CN(C)C(=O)[C@@H]1Cc1ccc(C(F)(F)F)cc1 [PP0785] ([NMeL][Nva(3-Et)][Aze][Sar][NPrPhe(4-CF3)][Sar][hPhe(3,5-F2-4-CF3)]P[Ac5c][NMeGly(cPent)][NMeD]-Morpholide; lactam N-11)	324 nM	3 nM	B (a compound having 3 or more and less than 10 is denoted as B)	B (a compound having 3 or more and less than 10 is denoted as B)	–	–	–	–	–	–
CC[C@H](C)[C@@H]1NC(=O)[C@H](CC(C)C)N(C)C(=O)C[C@@H](C(=O)N2CCOCC2)N(C)C(=O)[C@H](C2CCCC2)N(C)C(=O)C2(CCCC2)NC(=O)[C@@H]2CCCN2C(=O)[C@H](CCc2ccc(C(F)(F)F)c(Cl)c2)NC(=O)CN(C)C(=O)[C@H](Cc2ccc(F)cc2)N2CCCC[C@@H](C2=O)N(C)C(=O)CN(C)C1=O [PP0530]	7 nM	–	–	–	0.06 nM	B (a compound having 3 or more and less than 10 is denoted as B)	C (A compound having a KD ratio of 0.1 or more and less than 3 is denoted as C)	–	–	–
CCC[C@H]1C(=O)N[C@@H](C2CCOCC2)C(=O)N(C)CC(=O)N(C)[C@H]2C/C=C\CCN(C2=O)[C@@H](Cc2ccc(C)cc2)C(=O)N(C)CC(=O)N[C@@H](CCc2ccc(C(F)(F)F)c(Cl)c2)C(=O)N2C[C@H](OCC)C[C@H]2C(=O)NC2(CC(C)(C)C2)C(=O)N(C)[C@@H](CC(C)(C)C)C(=O)N(C)[C@H](C(=O)N(C)C)CC(=O)N1C [PP3026]	53.6 nM	–	A (a compound having 10 or more and less than 20 is denoted as A)	A (a compound having 10 or more and less than 20 is denoted as A)	–	–	–	0.66 nM	–	–
C=CCOC[C@]1(C)NC(=O)[C@@H]2CCCN2C(=O)[C@H](CCc2cc(F)c(C(F)(F)F)c(F)c2)NC(=O)CN(C)C(=O)[C@H](Cc2ccc(C(F)(F)F)cc2)N(CCC)C(=O)CN(C)C(=O)CN(C)C(=O)[C@H]([C@@H](C)CC)NC(=O)[C@H](CC(C)C)N(C)C(=O)C[C@@H](C(=O)N2CCOCC2)N(C)C(=O)[C@H](C2CCCC2)N(C)C1=O [PP0763] ([NMeL]I[Sar][Sar][NPrPhe(4-CF3)][Sar][hPhe(3,5-F2-4-CF3)]P[αMeS](Allyl)[NMeGly(cPent)][NMeD]-Morpholide; lactam N-11)	83 nM	0.98 nM	B (a compound having 3 or more and less than 10 is denoted as B)	B (a compound having 3 or more and less than 10 is denoted as B)	–	–	–	–	–	–
C#CCN1CC(=O)N(C)[C@H]2C/C=C\CCN(C2=O)[C@@H](Cc2ccc(C)cc2)C(=O)N(C)CC(=O)N[C@@H](CCc2ccc(C(F)(F)F)c(OC)c2)C(=O)N2C[C@H](OCC)C[C@H]2C(=O)NC2(CC(C)(C)C2)C(=O)N(C)[C@@H](C2CCCC2)C(=O)N(C)[C@H](C(=O)N(C)C)CC(=O)N(C)[C@@H](CCC)C(=O)N[C@@H]([C@@H](C)CC)C1=O [PP2099]	9.1 nM	–	–	–	0.14 nM	A (a compound having 10 or more and less than 20 is denoted as A)	A (a compound having 10 or more and less than 20 is denoted as A)	–	–	–
CCCN1C(=O)CN(C)C(=O)[C@@H]2CCN2C(=O)[C@H]([C@@H](C)CC)NC(=O)[C@H](CC(C)C)N(C)C(=O)C[C@@H](C(=O)N2CCOCC2)N(C)C(=O)[C@H](C2CCCC2)N(C)C(=O)C2(CCCC2)NC(=O)[C@@H]2CCN2C(=O)[C@H](CCc2ccc(C(F)(F)F)c(Cl)c2)NC(=O)CN(C)C(=O)[C@@H]1Cc1ccc(C(F)(F)F)cc1 [PP0307] ([NMeL]I[Aze][Sar][NPrPhe(4-CF3)][Sar][hPhe(3-Cl-4-CF3)][Aze][Ac5c][NMeGly(cPent)][NMeD]-Morpholide; lactam N-11)	205 nM	–	B (a compound having 3 or more and less than 10 is denoted as B)	B (a compound having 3 or more and less than 10 is denoted as B)	–	–	–	2.1 nM	–	–
CCCO[C@@H]1C[C@H]2C(=O)N(C)C3(CC(C)(C)C3)C(=O)N(C)[C@@H](C(CC)CC)C(=O)N(C)[C@H](C(=O)N(C)C)CC(=O)N(C)[C@@H](COC)C(=O)N[C@@H]([C@@H](C)CC)C(=O)N(C)CC(=O)N(C)[C@H]3C/C=C\CCN(C3=O)[C@@H](Cc3ccc(C)cc3)C(=O)N(C)CC(=O)N[C@@H](CCc3ccc(Cl)c(Cl)c3)C(=O)N2C1 [PP2812]	41 nM	–	A (a compound having 10 or more and less than 20 is denoted as A)	AA (a compound having 20 or more is denoted as AA)	–	–	–	0.56 nM	–	–
CCC[C@H]1C(=O)N[C@@H]([C@@H](C)CC)C(=O)N(C)CC(=O)N(C)[C@H]2C/C=C\CCN(C2=O)[C@@H](Cc2ccc(C)cc2)C(=O)N(C)CC(=O)N[C@@H](CCc2ccc3c(C)c(C)n(C)c3c2)C(=O)N2C[C@H](OCC)C[C@H]2C(=O)NC2(CC(C)(C)C2)C(=O)N(C)[C@@H](C(CC)CC)C(=O)N(C)[C@H](C(=O)N(C)C)CC(=O)N1C [PP2906]	99.3 nM	–	A (a compound having 10 or more and less than 20 is denoted as A)	A (a compound having 10 or more and less than 20 is denoted as A)	–	–	–	5.5 nM	–	–
CCO[C@@H]1C[C@H]2C(=O)NC3(CCC3)C(=O)N(C)[C@@H](C3CCCC3)C(=O)N(C)[C@H](C(=O)N(C)C)CC(=O)N(C)[C@@H](CC)C(=O)N[C@@H]([C@@H](C)CC)C(=O)N(C)CC(=O)N(C)[C@H]3CCCCCN(C3=O)[C@@H](Cc3nccs3)C(=O)N(C)CC(=O)N[C@@H](CCc3cc(F)c(C(F)(F)F)c(F)c3)C(=O)N2C1 [PP0913]	206 nM	1.1 nM	B (a compound having 3 or more and less than 10 is denoted as B)	B (a compound having 3 or more and less than 10 is denoted as B)	–	–	–	–	–	–
CC[C@H](C)[C@@H]1NC(=O)[C@H](CC(C)C)N(C)C(=O)C[C@@H](C(=O)N2CCOCC2)N(C)C(=O)[C@H](C2CCCC2)N(C)C(=O)C2(CCCC2)NC(=O)[C@@H]2C[C@@H](OC3CCCCO3)CN2C(=O)[C@H](CCc2ccc(C(F)(F)F)c(Cl)c2)NC(=O)CN(C)C(=O)[C@H](Cc2ccc(C)cc2)N(CC)C(=O)CN(C)C(=O)CN(C)C1=O (some centres unmarked) [PP0068] ([NMeL]I[Sar][Sar][NEtPhe(4-Me)][Sar][hPhe(3-Cl-4-CF3)][Hyp](X4)[Ac5c][NMeGly(cPent)][NMeD]-Morpholide; lactam N-11)	9.1 nM	–	C (A compound having a KD ratio of 0.1 or more and less than 3 is denoted as C)	C (A compound having a KD ratio of 0.1 or more and less than 3 is denoted as C)	–	–	–	0.14 nM	–	–
CCO[C@@H]1C[C@H]2C(=O)NC3(CCC3)C(=O)N(C)[C@@H](C3CCCC3)C(=O)N(C)[C@H](C)CC(=O)N(C)[C@@H](CC3CCCC3)C(=O)N[C@@H]([C@@H](C)CC)C(=O)N(C)CC(=O)N(C)[C@H]3C/C=C\CCN(C3=O)[C@@H](Cc3ccc(F)cc3)C(=O)N(C)CC(=O)N[C@@H](CCc3cc(F)c(C(F)(F)F)c(F)c3)C(=O)N2C1 [PP1492]	129 nM	–	–	–	0.94 nM	–	–	–	B (a compound having 3 or more and less than 10 is denoted as B)	B (a compound having 3 or more and less than 10 is denoted as B)
CCO[C@@H]1C[C@H]2C(=O)NC3(CC(C)(C)C3)C(=O)N(C)[C@@H](C(CC)CC)C(=O)N(C)[C@H](C(=O)N(C)C)CC(=O)N(C)[C@@H](CC(C)C)C(=O)N[C@@H]([C@@H](C)CC)C(=O)N(C)CC(=O)N(C)[C@H]3C/C=C\CCN(C3=O)[C@@H](Cc3ccc(C)cc3)C(=O)N(C)CC(=O)N[C@@H](CCc3cc(F)c(C(F)(F)F)c(F)c3)C(=O)N2C1 [PP2141]	9.4 nM	–	–	–	0.17 nM	A (a compound having 10 or more and less than 20 is denoted as A)	A (a compound having 10 or more and less than 20 is denoted as A)	–	–	–
CCC[C@H]1C(=O)N[C@@H]([C@@H](C)CC)C(=O)N(C)CC(=O)N(C)[C@H]2C/C=C\CCN(C2=O)[C@@H](Cc2ccc(C)cc2)C(=O)N(C)CC(=O)N[C@@H](CCc2ccc3ccn(C)c3c2)C(=O)N2C[C@H](OCC)C[C@H]2C(=O)NC2(CC(C)(C)C2)C(=O)N(C)[C@@H](C(CC)CC)C(=O)N(C)[C@H](C(=O)N(C)C)CC(=O)N1C [PP2914]	311 nM	–	A (a compound having 10 or more and less than 20 is denoted as A)	AA (a compound having 20 or more is denoted as AA)	–	–	–	14 nM	–	–
CCC[C@H]1C(=O)N[C@@H]([C@@H](C)CC)C(=O)N(C2CC2)CC(=O)N(C)[C@H]2C/C=C\CCN(C2=O)[C@@H](Cc2ccc(C)cc2)C(=O)N(C)CC(=O)N[C@@H](CCc2ccc(Cl)c(Cl)c2)C(=O)N2C[C@H](OCC)C[C@H]2C(=O)NC2(CC(C)(C)C2)C(=O)N(C)[C@@H](CC2CC2)C(=O)N(C)[C@H](C(=O)N(C)C)CC(=O)N1C [PP2805]	83 nM	–	A (a compound having 10 or more and less than 20 is denoted as A)	A (a compound having 10 or more and less than 20 is denoted as A)	–	–	–	3.7 nM	–	–
